From patent US12702689B2, “Anti-inflammatory compositions, and uses thereof” (P.L. THOMAS & CO., INC., priority 2022, dated 2026)

What was measured:
Format in all cases: in vivo, BALB/cJ female mice
[1] = test system: BAL leukocytes and eosinophils; assay: BAL fluid total and differential cell counts in OVA allergic airway model; conditions: 100 mg/kg AKBA
[2] = Body weight change in OVA allergic airway model; conditions: OVA+AKBA mice, 100 mg/kg AKBA by gavage, beginning to end of experiment; mean±SD
From the text: Eight-week-old BALB/cJ female mice were purchased from the Jackson Laboratory (Bar Harbor, ME, US) and housed in plastic cages with corncob bedding at the University of Connecticut Health (Farmington, CT.). Animal rooms maintained a 12-h light/dark cycle and were pathogen free. Mice were fed a 18% protein rodent diet (18.6% protein, 6.2% fat, 44.2% carbohydrate, 3.5% soluble fiber, 14.7% total fiber, 5.3% ash) purchased from Envigo (Indianapolis, IN, US) and supplied autoclaved water. Allergic airway phenotype was induced by using an ovalbumin (OVA, hen egg) sensitization and challenge model as previously described with modifications [Beigelman, A. et al. Azithromycin attenuates airway inflammation in a noninfectious mouse model of allergic asthma. Chest 136, 498-506 (2009)]. Briefly (FIG. 1), two groups of mice (OVA control and OVA+AKBA) were sensitized with intraperitoneal ovalbumin plus alum on days 0 and 7, challenged for 3 days (day 14 to day 17) via nebulized OVA at 1% in PBS for 30 mins, and harvested 48 hr after final challenge. Supplementation groups (OVA+AKBA) were given 100 mg/kg of water soluble AKBA (pH 7) (PLT Health Solutions, Morristown, NJ, US) in autoclaved mouse water, via gavage, every other day for 10 days and then every day for the remainder of the experiment (9 days). OVA control and naïve mouse continued to receive normal autoclaved mouse water. […]

[3] = test system: ovalbumin-induced allergic airway inflammation (lung); assay: Lung tissue histology and scoring in OVA allergic airway model; conditions: OVA+AKBA mice, 100 mg/kg AKBA
From the text: Allergic airway phenotype was induced by using an ovalbumin (OVA, hen egg) sensitization and challenge model as previously described with modifications [Beigelman, A. et al. Azithromycin attenuates airway inflammation in a noninfectious mouse model of allergic asthma. Chest 136, 498-506 (2009)]. Briefly (FIG. 1), two groups of mice (OVA control and OVA+AKBA) were sensitized with intraperitoneal ovalbumin plus alum on days 0 and 7, challenged for 3 days (day 14 to day 17) via nebulized OVA at 1% in PBS for 30 mins, and harvested 48 hr after final challenge. Supplementation groups (OVA+AKBA) were given 100 mg/kg of water soluble AKBA (pH 7) (PLT Health Solutions, Morristown, NJ, US) in autoclaved mouse water, via gavage, every other day for 10 days and then every day for the remainder of the experiment (9 days). OVA control and naïve mouse continued to receive normal autoclaved mouse water. Mice were weighted at the beginning and end of the experiment. Experiments involving AKBA were conducted twice, with the first group containing 5 mice per group and the second containing 15 mice per group (5 per group for naive). […]
Lung sectioning and staining was performed by the UConn Health Research Histology Core (Farmington, CT, US). […] Sections from the left lung were evaluated in their entirety and representative were images taken. […]

OVA-specific IgE = assay: Serum OVA-specific IgE, anti-OVA ELISA; conditions: OVA+AKBA mice, 100 mg/kg AKBA; at sacrifice; p=0.3223 vs OVA control

CC(=O)O[C@@H]1CC[C@@]2(C)[C@@H](CC[C@]3(C)[C@@H]2C(=O)C=C2[C@@H]4[C@@H](C)[C@H](C)CC[C@]4(C)CC[C@]23C)[C@@]1(C)C(=O)O [AKBA, 3-O-acetyl-11-keto-b-boswellic acid]
BAL total leukocyte counts lower versus OVA control group ([1]; Mann-Whitney p=0.0002): 46.69% | BAL total leukocyte counts higher than naïve control ([1]; Mann-Whitney p=0.0212): 60.38% | percent eosinophil in BAL ([1]; OVA+AKBA mice): 31.4% | absolute number of eosinophils in BAL ([1]; OVA+AKBA mice, mean±SD): 17317.95±5552.67 eosinophil/mL | total average weight change, % of starting weight [2]: −2.32±4.19% | histology score: inflammation and airway smooth muscle remodeling ([3]; score 0-3, blinded, p=0.1823 vs OVA control): 2.0±0.49 | histology score: mucus production ([3]; score 0-3, p=0.0278 vs OVA control): 2.0±0.4 | serum OVA-specific IgE (OVA-specific IgE): 1275.98 ± 503.22 ng/mL
